The target in this assay is EGFR (UniProt P00533).
Sequence of EGFR (P00533 whole entry, looked up): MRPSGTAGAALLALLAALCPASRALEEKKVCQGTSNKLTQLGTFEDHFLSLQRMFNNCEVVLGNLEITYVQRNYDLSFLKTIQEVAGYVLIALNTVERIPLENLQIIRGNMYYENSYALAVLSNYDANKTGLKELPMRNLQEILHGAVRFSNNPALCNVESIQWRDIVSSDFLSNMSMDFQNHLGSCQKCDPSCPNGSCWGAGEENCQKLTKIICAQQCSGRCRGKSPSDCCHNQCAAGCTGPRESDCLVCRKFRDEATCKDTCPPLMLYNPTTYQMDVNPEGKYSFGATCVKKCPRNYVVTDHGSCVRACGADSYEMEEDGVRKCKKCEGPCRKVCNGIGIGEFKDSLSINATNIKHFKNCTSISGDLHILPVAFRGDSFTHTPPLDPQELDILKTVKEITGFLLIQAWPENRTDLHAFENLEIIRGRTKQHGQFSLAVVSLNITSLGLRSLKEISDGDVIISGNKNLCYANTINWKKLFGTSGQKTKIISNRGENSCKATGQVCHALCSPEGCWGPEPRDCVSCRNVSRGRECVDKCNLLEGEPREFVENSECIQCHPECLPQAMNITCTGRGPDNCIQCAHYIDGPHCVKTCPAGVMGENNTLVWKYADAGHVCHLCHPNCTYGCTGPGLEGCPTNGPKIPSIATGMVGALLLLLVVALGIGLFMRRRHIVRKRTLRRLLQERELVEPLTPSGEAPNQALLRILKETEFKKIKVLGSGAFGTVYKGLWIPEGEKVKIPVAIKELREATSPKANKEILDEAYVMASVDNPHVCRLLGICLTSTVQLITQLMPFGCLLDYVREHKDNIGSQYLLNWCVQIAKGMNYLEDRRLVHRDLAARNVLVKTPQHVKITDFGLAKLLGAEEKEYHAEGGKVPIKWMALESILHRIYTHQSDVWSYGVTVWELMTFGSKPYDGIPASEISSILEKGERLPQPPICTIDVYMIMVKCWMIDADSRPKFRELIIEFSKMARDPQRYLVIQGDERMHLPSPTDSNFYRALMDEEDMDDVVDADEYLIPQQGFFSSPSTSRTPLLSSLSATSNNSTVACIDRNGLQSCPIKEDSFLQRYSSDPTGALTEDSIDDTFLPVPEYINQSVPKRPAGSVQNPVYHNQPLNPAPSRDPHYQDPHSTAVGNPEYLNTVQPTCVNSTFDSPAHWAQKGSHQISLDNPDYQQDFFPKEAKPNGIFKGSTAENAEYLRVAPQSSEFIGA
Compound `NCCC(=O)N[C@@H](Cc1cc(O)c(O)c(SC[C@H](NC(=O)CC[C@H](N)C(=O)O)C(=O)NCC(=O)O)c1)C(=O)O` yielded an inhibition of 2.2. In turn, `NCCc1cc(O)c(O)c(SC[C@H](NC(=O)CC[C@H](N)C(=O)O)C(=O)NCC(=O)O)c1` yielded an inhibition of 1. Turning to `N[C@@H](CCC(=O)N[C@@H](CSc1cc(C[C@H](N)C(=O)O)cc(O)c1O)C(=O)NCC(=O)O)C(=O)O`, the inhibition came to 4.4.

In turn, `NCCC(=O)NCCc1cc(O)c(O)c(SC[C@H](NC(=O)CC[C@H](N)C(=O)O)C(=O)NCC(=O)O)c1` returned an inhibition of 4.9. Compound `N[C@@H](CSc1cc(C[C@H](N)C(=O)O)cc(O)c1O)C(=O)O` showed an inhibition of 2.9. `NCCc1cc(SC[C@H](NC(=O)CC[C@H](N)C(=O)O)C(=O)NCC(=O)O)c(O)c(O)c1SC[C@@H](NC(=O)CC[C@@H](N)C(=O)O)C(=O)NCC(=O)O` gave an inhibition of 7.6. For the compound `N[C@H](Cc1cc(O)c(O)c(SC[C@H](N)C(=O)O)c1)C(=O)O`, the inhibition stood at 0.

Regarding `C[C@@](Cc1cc(O)c(O)c(SC[C@H](NC(=O)CC[C@H](N)C(=O)O)C(=O)NCC(=O)O)c1)(NC(=O)CCN)C(=O)O`, the inhibition amounted to 5.2. Compound `N[C@H](Cc1cc(O)c(O)c(SC[C@H](NC(=O)CC[C@H](N)C(=O)O)C(=O)NCC(=O)O)c1)C(=O)O` registered an inhibition of 0. In turn, `NCCC(=O)N[C@H](Cc1cc(O)c(O)c(SC[C@H](NC(=O)CC[C@H](N)C(=O)O)C(=O)NCC(=O)O)c1)C(=O)O` returned an inhibition of 8.2.

For the origin of these results see the Kinase Knowledgebase extract (Sharma et al. 2016).
